From patent US20250163168A1, “NOVEL ANTIBODIES AND ANTIBODY CONJUGATES FOR THE TREATMENT OF METABOLIC DISORDERS” (PFIZER INC., priority 2023, published 2025)

Tests used:
[1] = tested on: diet induced obese (DIO) hGIPR mice; assay: Body weight gain prevention and food intake in DIO hGIPR mice on high fat diet; assay type: in vivo, mouse; details: 1 mg/kg s.c. twice a week, 60% high fat diet, compared to IgG control (FIG. 6)
Source text: Male hGIPR mice between 18-21 weeks of age were utilized which had been on 60% high fat diet (D12492, Research Diets) for 14 weeks prior to the start of the study and were singly housed, maintained on a 12-hour light/12-hour dark cycle, and received food and water ad libitum. Prior to the start of the study, mice were randomized into each group based on body weight. […] Mice were continued on 60% high fat diet for the duration of the study. In FIG. 2, number of animals per group=10; Data are presented as the mean and error bars are SEM.
To determine statistical significance for the body weight endpoint, a generalized least squares linear model with appropriate fixed effects and correlation and variance structure are used for BW outcomes. All residuals were evaluated for meeting the normality assumption with the Shapiro-Wilks Test and Q-Q Plots and the sphericity and homoscedasticity assumption by the residual plots and Bartlett's test. […]
Male hGIPR mice between 18-21 weeks of age were utilized which had been on 60% high fat diet (D12492, Research Diets) for 14 weeks prior to the start of the study and were singly housed, maintained on a 12 hour light/12 hour dark cycle, and received food and water ad libitum. […] Percent change in body weight at each time point was calculated based on difference from pre-dose weight, and 24 hour food intake was measured during week 3. […]

mouse GIPR/GIP = target: T1, mouse GIPR/GIP (Mus musculus, UniProt Q0P543); assay: Cross-species activity to mouse GIPR/GIP
T1 sequence (Q0P543 19-460): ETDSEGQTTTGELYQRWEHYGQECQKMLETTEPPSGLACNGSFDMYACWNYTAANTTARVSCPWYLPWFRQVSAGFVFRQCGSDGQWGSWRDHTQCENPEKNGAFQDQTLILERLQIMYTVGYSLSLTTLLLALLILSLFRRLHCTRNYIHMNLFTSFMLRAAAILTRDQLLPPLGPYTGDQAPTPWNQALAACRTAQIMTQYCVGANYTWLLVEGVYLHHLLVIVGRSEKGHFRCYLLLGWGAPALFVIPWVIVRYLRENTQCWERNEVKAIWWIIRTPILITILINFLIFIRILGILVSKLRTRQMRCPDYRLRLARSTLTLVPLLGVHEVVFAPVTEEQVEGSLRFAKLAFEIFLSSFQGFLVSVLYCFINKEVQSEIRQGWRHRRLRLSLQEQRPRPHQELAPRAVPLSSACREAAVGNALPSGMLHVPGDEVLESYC

[2] = tested on: diet induced obese (DIO) male hGIPR mice; assay: Oral glucose tolerance test (OGTT) in DIO male hGIPR mice; assay type: in vivo, mouse; details: single dose 1 mpk, versus IgG (FIG. 5B)
Source text: To test the efficacy of anti-GIPR antibodies GIPR-0107 and GIPR-2767 in vivo, humanized mice expressing hGIPR were made in which human GIPR is expressed under the control of the endogenous mouse Gipr locus while knocking out the mouse Gipr gene. Human GIPR cDNA-SV40 pA was inserted in-frame with mouse Gipr at the end of exon 2 (1st coding exon) utilizing CRISPR/Cas9 technology. Insertion of human GIPR cDNA and disruption of mouse Gipr was validated by genotyping, and human GIPR mRNA expression was confirmed by quantitative PCR. These hGIPR mice were used to measure the in vivo efficacy of GIPR-0107 and GIPR-2767 using oral glucose tolerance test (OGTT) and weight gain prevention studies.
Mice were singly housed, maintained on a 12-hour light/12-hour dark cycle, and received food and wr ad libitum. Prior to the start of the study, mice were weighed and randomized into groups based on body weight. […] Before dosing, mice were bled vial tail snip to obtain a basal blood glucose reading by AlphaTRAK handheld glucometer, and at time 0, mice were dosed with 1.5 g/kg glucose by oral gavage. Blood glucose was measured by glucometer at 15 min, 30 min, 60 min, and 120 min after glucose administration. […] All residuals were evaluated for meeting the normality assumption with the Shapiro-Wilks Test and Q-Q Plots and the sphericity and homoscedasticity assumption by the residual plots and Bartlett's test. […]

“2G10: fully human monoclonal anti-GIPR antagonist antibody portion of AMG 133 (maridebart cafraglutide); benchmark antibody [reference compound]” was tested, and the body weight gain [1] was “reduced body weight gain”, the “cross-reactivity to additional species such as mouse GIPR” value (mouse GIPR/GIP) was “not cross-reactive” and the “baseline glucose adjusted AUC in OGTT” value [2] was “not significantly different than IgG”.
